Laboratory results taken from patent US20130261154A1 (priority 2010, published 2013).

Experiments:
Type in all cases: in vivo
[1] = test system: Plasmopara viticola; assay: Test A: grape downy mildew, spray after inoculation of grape seedlings; conditions: inoculated, 24 h later sprayed to run-off, visual disease rating, test concentration not given
Excerpt: General protocol for preparing test suspensions for Test A-C: The test compounds were first dissolved in acetone in an amount equal to 3% of the final volume and then suspended at the desired concentration (in ppm) in acetone and purified water (50/50 mix by volume) containing 250 ppm of the surfactant Trem® 014 (polyhydric alcohol esters). The resulting test suspensions were then used in Tests A-C. Spraying a 40 ppm test suspension to the point of run-off on the test plants was equivalent to a rate of 160 g/ha.
Grape seedlings were inoculated with a spore suspension of Plasmopara viticola (the causal agent of grape downy mildew) and incubated in a saturated atmosphere at 20° C. for 24 h. After a short drying period, the test suspension was sprayed to the point of run-off on the grape seedlings, which were then moved to a growth chamber at 20° C. for 5 days, after which time the grape seedling were placed back into a saturated atmosphere at 20° C. for 24 h. Upon removal, visual disease ratings were made.
Results for Tests A-C are given in Table A. In the table, a rating of 100 indicates 100% disease control and a rating of 0 indicates no disease control (relative to the controls).

[2] = test system: Phytophthora infestans; conditions: tomato seedlings; sprayed to run-off, inoculated the following day; visual disease rating; test concentration not given
[3] = test system: Phytophthora infestans; conditions: tomato seedlings; inoculated, 17 h later sprayed to run-off; visual disease rating; test concentration not given

Structure (SMILES): Cc1cc(C(F)(F)F)nn1CC(=O)N1CCC(c2nc(C3=NOC(CCOc4ccccc4I)C3)cs2)CC1 (stereo not drawn) [Compound 1]
- Test A disease control rating (100 = 100% disease control, 0 = no disease control relative to the controls) [1]: 86%
- Test B disease control rating (100 = 100% disease control, 0 = no disease control relative to the controls) [2]: 99%
- Test C disease control rating (100 = 100% disease control, 0 = no disease control relative to the controls) [3]: 91%

Structure (SMILES): Cc1cc(C(F)(F)F)nn1CC(=O)N1CCC(c2nc(C3=NOC(CCOc4c(F)cccc4F)C3)cs2)CC1 (stereo not drawn) [Compound 2, 1-[4-[4-[5-[2-(2,6-difluorophenoxy)ethyl]-4,5-dihydro-3-isoxazolyl]-2-thiazolyl]-1-piperidinyl]-2-[5-methyl-3-(trifluoromethyl)-1H-pyrazol-1-yl]ethanone]
- Test A disease control rating (100 = 100% disease control, 0 = no disease control relative to the controls) [1]: 96%
- Test B disease control rating (100 = 100% disease control, 0 = no disease control relative to the controls) [2]: 100%
- Test C disease control rating (100 = 100% disease control, 0 = no disease control relative to the controls) [3]: 99%

Structure (SMILES): Cc1cc(C(F)(F)F)nn1CC(=O)N1CCC(c2nc(C3=NOC(COCN4C(=O)c5ccccc5C4=O)C3)cs2)CC1 (stereo not drawn) [Compound 3, 2-[[[4,5-dihydro-3-[2-[1-[2-[5-methyl-3-(trifluoromethyl)-1H-pyrazol-1-yl]acetyl]-4-piperidinyl]-4-thiazolyl]-5-isoxazolyl]methoxy]methyl]-1H-isoindole-1,3(2H)-dione]
- Test A disease control rating (100 = 100% disease control, 0 = no disease control relative to the controls) [1]: 40%
- Test B disease control rating (100 = 100% disease control, 0 = no disease control relative to the controls) [2]: 95%
- Test C disease control rating (100 = 100% disease control, 0 = no disease control relative to the controls) [3]: 46%

Structure (SMILES): Cc1cc(C(F)(F)F)nn1CC(=O)N1CCC(c2nc(C3=NOC(CC(=O)NCc4c(F)cccc4F)C3)cs2)CC1 (stereo not drawn) [Compound 4, N-[(2,6-difluorophenyl)methyl]-4,5-dihydro-3-[2-[1-[2-[5-methyl-3-(trifluoromethyl)-1H-pyrazol-1-yl]acetyl]-4-piperidinyl]-4-thiazolyl]-5-isoxazoleacetamide]
- Test A disease control rating (100 = 100% disease control, 0 = no disease control relative to the controls) [1]: 24%
- Test B disease control rating (100 = 100% disease control, 0 = no disease control relative to the controls) [2]: 100%
- Test C disease control rating (100 = 100% disease control, 0 = no disease control relative to the controls) [3]: 99%

Structure (SMILES): Cc1cc(C(F)(F)F)nn1CC(=O)N1CCC(c2nc(C3=NOC(CCCN4C(=O)c5ccccc5C4=O)C3)cs2)CC1 (stereo not drawn) [Compound 5]
- Test A disease control rating (100 = 100% disease control, 0 = no disease control relative to the controls) [1]: 67%
- Test B disease control rating (100 = 100% disease control, 0 = no disease control relative to the controls) [2]: 100%
- Test C disease control rating (100 = 100% disease control, 0 = no disease control relative to the controls) [3]: 99%

Structure (SMILES): Cc1cc(C(F)(F)F)nn1CC(=O)N1CCC(c2nc(C3=NOC(CC(=O)Nc4c(F)cccc4F)C3)cs2)CC1 (stereo not drawn) [Compound 6]
- Test A disease control rating (100 = 100% disease control, 0 = no disease control relative to the controls) [1]: 0%
- Test B disease control rating (100 = 100% disease control, 0 = no disease control relative to the controls) [2]: 9%
- Test C disease control rating (100 = 100% disease control, 0 = no disease control relative to the controls) [3]: 46%

Structure (SMILES): Cc1cc(C(F)(F)F)nn1CC(=O)N1CCC(c2nc(C3=NOC(CCCn4c(=O)sc5ccc(Cl)cc54)C3)cs2)CC1 (stereo not drawn) [Compound 8, 5-chloro-3-[3-[4,5-dihydro-3-[2-[1-[2-[5-methyl-3-(trifluoromethyl)-1H-pyrazol-1-yl]acetyl]-4-piperidinyl]-4-thiazolyl]-5-isoxazolyl]propyl]-2(3H)-benzothiazolone]
- Test A disease control rating (100 = 100% disease control, 0 = no disease control relative to the controls) [1]: 0%
- Test B disease control rating (100 = 100% disease control, 0 = no disease control relative to the controls) [2]: 100%
- Test C disease control rating (100 = 100% disease control, 0 = no disease control relative to the controls) [3]: 0%

Structure (SMILES): Cc1cc(C(F)(F)F)nn1CC(=O)N1CCC(c2nc(C3=NOC(CCON4C(=O)c5ccccc5C4=O)C3)cs2)CC1 (stereo not drawn) [Compound 9]
- Test A disease control rating (100 = 100% disease control, 0 = no disease control relative to the controls) [1]: 0%
- Test B disease control rating (100 = 100% disease control, 0 = no disease control relative to the controls) [2]: 99%
- Test C disease control rating (100 = 100% disease control, 0 = no disease control relative to the controls) [3]: 73%

Structure (SMILES): Cc1cc(C(F)(F)F)nn1CC(=O)N1CCC(c2nc(C3=NOC(COc4c(F)cccc4F)C3)cs2)CC1 (stereo not drawn) [Compound 10]
- Test A disease control rating (100 = 100% disease control, 0 = no disease control relative to the controls) [1]: 0%
- Test B disease control rating (100 = 100% disease control, 0 = no disease control relative to the controls) [2]: 100%
- Test C disease control rating (100 = 100% disease control, 0 = no disease control relative to the controls) [3]: 64%

Structure (SMILES): Cc1cc(C(F)(F)F)nn1CC(=O)N1CCC(c2nc(C3=NOC(CCCOc4c(F)cccc4F)C3)cs2)CC1 (stereo not drawn) [Compound 11]
- Test A disease control rating (100 = 100% disease control, 0 = no disease control relative to the controls) [1]: 100%
- Test B disease control rating (100 = 100% disease control, 0 = no disease control relative to the controls) [2]: 100%
- Test C disease control rating (100 = 100% disease control, 0 = no disease control relative to the controls) [3]: 99%

Structure (SMILES): Cc1cc(C(F)(F)F)nn1CC(=O)N1CCC(c2nc(C3=NOC(CCCCOc4c(F)cccc4F)C3)cs2)CC1 (stereo not drawn) [Compound 12]
- Test A disease control rating (100 = 100% disease control, 0 = no disease control relative to the controls) [1]: 100%
- Test B disease control rating (100 = 100% disease control, 0 = no disease control relative to the controls) [2]: 99%
- Test C disease control rating (100 = 100% disease control, 0 = no disease control relative to the controls) [3]: 92%

Structure (SMILES): COc1ccc(OCCC2CC(c3csc(C4CCN(C(=O)Cn5nc(C(F)(F)F)cc5C)CC4)n3)=NO2)c(F)c1 (stereo not drawn) [Compound 13]
- Test A disease control rating (100 = 100% disease control, 0 = no disease control relative to the controls) [1]: 100%
- Test B disease control rating (100 = 100% disease control, 0 = no disease control relative to the controls) [2]: 100%
- Test C disease control rating (100 = 100% disease control, 0 = no disease control relative to the controls) [3]: 95%

Structure (SMILES): Cc1cc(C(F)(F)F)nn1CC(=O)N1CCC(c2nc(C3=NOC(CCOc4c(F)cc(C#N)cc4F)C3)cs2)CC1 (stereo not drawn) [Compound 14]
- Test A disease control rating (100 = 100% disease control, 0 = no disease control relative to the controls) [1]: 99%
- Test B disease control rating (100 = 100% disease control, 0 = no disease control relative to the controls) [2]: 100%
- Test C disease control rating (100 = 100% disease control, 0 = no disease control relative to the controls) [3]: 73%

Structure (SMILES): Cc1cc(C(F)(F)F)nn1CC(=O)N1CCC(c2nc(C3=NOC(CCOc4ccc(C#N)cc4F)C3)cs2)CC1 (stereo not drawn) [Compound 15]
- Test A disease control rating (100 = 100% disease control, 0 = no disease control relative to the controls) [1]: 100%
- Test B disease control rating (100 = 100% disease control, 0 = no disease control relative to the controls) [2]: 100%
- Test C disease control rating (100 = 100% disease control, 0 = no disease control relative to the controls) [3]: 99%

Structure (SMILES): COc1cc(F)c(OCC2CC(c3csc(C4CCN(C(=O)Cn5nc(C(F)(F)F)cc5C)CC4)n3)=NO2)c(F)c1 (stereo not drawn) [Compound 16]
- Test A disease control rating (100 = 100% disease control, 0 = no disease control relative to the controls) [1]: 99%
- Test B disease control rating (100 = 100% disease control, 0 = no disease control relative to the controls) [2]: 100%
- Test C disease control rating (100 = 100% disease control, 0 = no disease control relative to the controls) [3]: 99%

Structure (SMILES): COC(=O)c1ccc(OCCC2CC(c3csc(C4CCN(C(=O)Cn5nc(C(F)(F)F)cc5C)CC4)n3)=NO2)c(F)c1 (stereo not drawn) [Compound 17]
- Test A disease control rating (100 = 100% disease control, 0 = no disease control relative to the controls) [1]: 100%
- Test B disease control rating (100 = 100% disease control, 0 = no disease control relative to the controls) [2]: 100%
- Test C disease control rating (100 = 100% disease control, 0 = no disease control relative to the controls) [3]: 99%

Structure (SMILES): COc1cc(F)c(OCCC2CC(c3csc(C4CCN(C(=O)Cn5nc(C(F)(F)F)cc5C)CC4)n3)=NO2)c(F)c1 (stereo not drawn) [Compound 18]
- Test A disease control rating (100 = 100% disease control, 0 = no disease control relative to the controls) [1]: 79%
- Test B disease control rating (100 = 100% disease control, 0 = no disease control relative to the controls) [2]: 71%
- Test C disease control rating (100 = 100% disease control, 0 = no disease control relative to the controls) [3]: 17%
